US10793566B2, “Bruton's tyrosine kinase inhibitors” (Zibo Biopolar Changsheng Pharmaceutical Co. Ltd., priority 2016, dated 2020)

What was measured:
[1] = target: T1, BTK (Homo sapiens (Human), UniProt Q06187); experiment: Btk occupancy in cellular assays (PCI-33380 labeling); format: cell-based; details: Jeko-1 cells, 1.5 h pre-incubation, PCI-33380 probe
Procedure: Btk Occupancy in Cellular Assays
For PCI-33380 labeling of human B cells, 10^6 Jeko-1 cells were pre-incubated with compound for 1.5 h before labeling. Then cells were treated with PCI-33380 at 5 μM for 1 h. Washed, lysed in Ripa buffer containing sample reducing agent, and analyzed by SDS/PAGE and fluorescent gel scanning using a Typhoon scanner 9500 (GE Healthcare) (Ex, 532 nm; Em, 555 nm). The gel was then blotted and total Btk levels detected by standard Western blot with Btk antibody (CST).
Target sequence in this assay (Q06187 whole entry): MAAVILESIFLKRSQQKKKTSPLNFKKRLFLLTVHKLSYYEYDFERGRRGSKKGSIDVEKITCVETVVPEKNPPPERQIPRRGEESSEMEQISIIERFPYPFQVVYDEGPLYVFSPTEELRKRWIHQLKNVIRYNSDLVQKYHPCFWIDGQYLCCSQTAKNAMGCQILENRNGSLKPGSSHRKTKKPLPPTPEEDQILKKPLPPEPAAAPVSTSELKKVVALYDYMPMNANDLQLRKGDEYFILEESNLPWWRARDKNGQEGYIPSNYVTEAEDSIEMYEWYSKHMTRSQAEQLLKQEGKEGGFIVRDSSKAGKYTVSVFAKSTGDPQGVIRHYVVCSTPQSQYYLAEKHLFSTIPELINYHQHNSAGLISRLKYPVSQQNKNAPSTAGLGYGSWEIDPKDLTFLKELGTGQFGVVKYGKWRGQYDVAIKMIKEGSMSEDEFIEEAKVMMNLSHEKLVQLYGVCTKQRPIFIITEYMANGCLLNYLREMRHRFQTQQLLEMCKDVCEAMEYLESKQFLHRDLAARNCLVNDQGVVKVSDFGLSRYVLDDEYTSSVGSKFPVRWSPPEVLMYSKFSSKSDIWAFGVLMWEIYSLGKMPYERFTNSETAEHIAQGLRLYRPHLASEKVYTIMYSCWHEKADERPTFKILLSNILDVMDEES

[2] = target: Btk (Mus musculus (Mouse), UniProt P35991); experiment: Btk occupancy in vivo (PBMCs/splenocytes, PCI-33380 labeling); details: Babc/L mice, after 4 hours
Procedure: For analysis of Btk occupancy in Babc/L mice following oral dosing of compounds after 4 hours. Isolating peripheral blood mononuclear cells (PBMCs) with mouse peripheral blood separation kit (Hao Yang Biological Manufacture CO., LTD, Tianjin) were collected from Babc/L mice (1 ml blood from two mice). Spleens were processed to splenocytes followed by 5 min incubation in red blood cell lysing buffer (from mouse peripheral blood separation kit). PBMCs or splenocytes were then PCI-33380-labeled and lysates analyzed by fluorescent gel scanning as described in cellular assays.

[3] = system: Ramos cells; experiment: Calcium flux assay, anti-IgM stimulated Ramos cells; format: cell-based; details: Homo sapiens, IgM-induced calcium influx, read-out: Ramos Ca Flux
Procedure: Calcium flux fluorescence-based assays were performed in aFDSS7000EX (Hamamatsu Photonics) fluorometric imaging plate reader according to manufacturer instructions. Compounds to be assayed were dissolved in DMSO, diluted to appropriate concentrations in Ca^2+ buffer ranging from 0 to 10 μM (at a dilution factor of 0.1), added 5 μl (6 X) to each well (the final DMSO concentration was 0.1% in each well). Then 12.5 μL 2× dye loading solution (Fluo-4 NW Calcium Assay Kits, Invitrogen) was added per well of a 384-well plate. Afterwards, actively growing Ramos cells (ATCC) in RPM1640 medium supplemented with 10% FBS (Invitrogen) were washed and re-plated in assay buffer (from Fluo-4 NW Calcium Assay Kits, Invitrogen) to approximately 6.4×10^6/ml (80000 cells/12.5 μL in 384-well plates). The plates were incubated at 37° C. for 30 minutes, then at room temperature for an additional 30 minutes. The plates were now ready to be used in an experiment. Immediately after the transfer and a 10-s recording of baseline fluorescence, the compound treated cells were stimulated with a goat anti-human IgM antibody ([…]; Jackson Immuno Research) and read in a FDSS for 240 seconds. Difference between the signal and that at baseline, designated adjusted relative fluorescence unit, was calculated by using a custom Excel (Microsoft, Redmond, Wash.) template to determine IgM-induced calcium influx and its inhibition by compounds. The table below show the result.

[4] = target: T1, BTK; experiment: Btk kinase assay (HTRF); format: biochemical; details: [ATP]=80 μM, BTK=3.4 nM; read-out: BTK Inhibition
Procedure: Btk Kinase Assay and Other Kinases Assay Btk kinase activity was determined using a homogenous time resolved fluorescence (HTRF) methodology. Measurements were performed in a reaction volume of 15 μL using 384-well assay plates. […] Activity was determined by the ratio of the fluorescence at 665 nm to that at 615 nm. For each compound, enzyme activity as measured at various concentrations of compound, Negative control reactions were performed in the absence of inhibitor in two replicates and eight no enzyme controls were used to determine baseline fluorescence levels.
Target sequence in this assay (Q06187 whole entry, species assumed): as the sequence (Q06187 whole entry) above

Chain of Btk (P35991 whole entry): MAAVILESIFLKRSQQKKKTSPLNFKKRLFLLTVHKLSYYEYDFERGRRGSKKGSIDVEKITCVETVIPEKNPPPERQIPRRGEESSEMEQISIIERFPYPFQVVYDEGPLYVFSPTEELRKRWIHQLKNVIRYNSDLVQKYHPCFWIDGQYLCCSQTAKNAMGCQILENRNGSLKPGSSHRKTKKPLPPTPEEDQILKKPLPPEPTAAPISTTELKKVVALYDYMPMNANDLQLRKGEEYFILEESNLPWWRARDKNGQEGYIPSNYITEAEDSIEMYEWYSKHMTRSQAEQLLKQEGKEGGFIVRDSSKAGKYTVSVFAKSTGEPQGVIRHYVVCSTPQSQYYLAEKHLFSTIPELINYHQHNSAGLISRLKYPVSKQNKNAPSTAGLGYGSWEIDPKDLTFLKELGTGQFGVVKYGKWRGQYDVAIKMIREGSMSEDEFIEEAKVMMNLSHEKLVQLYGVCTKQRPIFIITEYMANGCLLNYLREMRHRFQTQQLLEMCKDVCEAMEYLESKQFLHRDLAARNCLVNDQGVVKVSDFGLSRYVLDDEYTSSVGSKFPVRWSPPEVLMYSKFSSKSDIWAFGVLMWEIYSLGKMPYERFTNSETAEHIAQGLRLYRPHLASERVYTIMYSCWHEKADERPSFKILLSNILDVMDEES

Row | Compound | concentration sufficient to fully occupy the active site of Btk [1] [nM] | also measured
1 | C=CC(=O)N1CCC[C@@H](n2nc(-c3ccc(Oc4cccc(OC)c4F)cc3)c3cncc(OC4CCOC4)c32)C1 (stereo partly drawn) [Example 99, 1-((3R)-3-(3-(4-(2-fluoro-3-methoxyphenoxy)phenyl)-7-((tetrahydrofuran-3-yl)oxy)-1H-pyrazolo[4,3-c]pyridin-1-yl)piperidin-1-yl)prop-2-en-1-one] | 100 | 
2 | C=CC(=O)N1CC[C@@H](n2nc3ccncc3c2-c2ccc(Oc3cccc(Cl)c3Cl)cc2)C1 [Example 41, (R)-1-(3-(3-(4-(2,3-dichlorophenoxy)phenyl)-2H-pyrazolo[4,3-c]pyridin-2-yl)pyrrolidin-1-yl)prop-2-en-1-one] | 100 | 
3 | C=CC(=O)N1CCC[C@@H](n2nc(-c3ccc(Oc4cccc(OC)c4Cl)cc3)c3cnccc32)C1 [Example 2, (R)-1-(3-(3-(4-(2-chloro-3-methoxyphenoxy)phenyl)-1H-pyrazolo[4,3-c]pyridin-1-yl)piperidin-1-yl)prop-2-en-1-one] | 100 | Btk occupancy in vivo ([2]; 10 mg/kg single oral dose): full occupancy; IC50 [3]: 0.01 to 0.1 µM
4 | C=CC(=O)N1CCC[C@@H](n2nc(-c3ccc(Oc4cccc(OC)c4F)cc3)c3cncc(OC)c32)C1 [Example 6, (R)-1-(3-(3-(4-(2-fluoro-3-methoxyphenoxy)phenyl)-7-methoxy-1H-pyrazolo[4,3-c]pyridin-1-yl)piperidin-1-yl)prop-2-en-1-one] |  | IC50 [3]: 0.01 to 0.1 µM
5 | C=CC(=O)N1CC[C@@H](n2nc(-c3ccc(Oc4cccc(OC)c4F)cc3)c3cncc(OCC)c32)C1 [Example 80, (R)-1-(3-(7-ethoxy-3-(4-(2-fluoro-3-methoxyphenoxy)phenyl)-1H-pyrazolo[4,3-c]pyridin-1-yl)pyrrolidin-1-yl)prop-2-en-1-one] | 50 | 
6 | C=CC(=O)N1CCC[C@@H](n2nc3ccncc3c2-c2ccc(Oc3cccc(Cl)c3Cl)cc2)C1 [Example 43, (R)-1-(3-(3-(4-(2,3-dichlorophenoxy)phenyl)-2H-pyrazolo[4,3-c]pyridin-2-yl)piperidin-1-yl)prop-2-en-1-one] | 100 | 
7 | C=CC(=O)N1CCC[C@@H](n2nc(-c3ccc(Oc4cccc(OC)c4F)cc3)c3cncc(OCCC)c32)C1 [Example 77, (R)-1-(3-(3-(4-(2-fluoro-3-methoxyphenoxy)phenyl)-7-propoxy-1H-pyrazolo[4,3-c]pyridin-1-yl)piperidin-1-yl)prop-2-en-1-one] | 25 | 
8 | C=CC(=O)N1CC[C@@H](n2nc(-c3ccc(Oc4cccc(OC)c4Cl)cc3)c3cncc(OC)c32)C1 [Example 69, (R)-1-(3-(3-(4-(2-chloro-3-methoxyphenoxy)phenyl)-7-methoxy-1H-pyrazolo[4,3-c]pyridin-1-yl)pyrrolidin-1-yl)prop-2-en-1-one] | 100 | 
9 | C=CC(=O)N1CCC[C@@H](n2nc(-c3ccc(Oc4cccc(OC)c4F)cc3)c3cnccc32)C1 [Example 71, (R)-1-(3-(3-(4-(2-fluoro-3-methoxyphenoxy)phenyl)-1H-pyrazolo[4,3-c]pyridin-1-yl)piperidin-1-yl)prop-2-en-1-one] | 100 | Btk occupancy in vivo ([2]; 10 mg/kg single oral dose): full occupancy
10 | C=CC(=O)N1CCCC1Cn1nc(-c2ccc(Oc3cccc(OC)c3F)cc2)c2cncc(OC)c21 (centres unmarked) [Example 91, 1-(2-((3-(4-(2-fluoro-3-methoxyphenoxy)phenyl)-7-methoxy-1H-pyrazolo[4,3-c]pyridin-1-yl)methyl)pyrrolidin-1-yl)prop-2-en-1-one] |  | Btk occupancy in vivo ([2]; 5 mg/kg single oral dose): full occupancy
11 | C=CC(=O)N1CCC[C@@H](n2nc(-c3ccc(Oc4cccc(F)c4F)cc3)c3cnccc32)C1 [Example 17, (R)-1-(3-(3-(4-(2,3-difluorophenoxy)phenyl)-1H-pyrazolo[4,3-c]pyridin-1-yl)piperidin-1-yl)prop-2-en-1-one] | 100 | 
12 | C=CC(=O)N1CC[C@@H](n2nc(-c3ccc(Oc4cccc(OC)c4F)cc3)c3cncc(OC)c32)C1 [Example 79, (R)-1-(3-(3-(4-(2-fluoro-3-methoxyphenoxy)phenyl)-7-methoxy-1H-pyrazolo[4,3-c]pyridin-1-yl)pyrrolidin-1-yl)prop-2-en-1-one] | 50 | 
13 | C=CC(=O)N1CC[C@@H](n2nc(-c3ccc(Oc4cccc(F)c4Cl)cc3)c3cnccc32)C1 [Example 4, (R)-1-(3-(3-(4-(2-chloro-3-fluorophenoxy)phenyl)-1H-pyrazolo[4,3-c]pyridin-1-yl)pyrrolidin-1-yl)prop-2-en-1-one] | 100 | Btk occupancy in vivo ([2]; 10 mg/kg single oral dose): full occupancy; IC50 [3]: 0.01 to 0.1 µM
14 | C=CC(=O)N1CC[C@@H](n2nc(-c3ccc(Oc4cccc(OC)c4F)cc3)c3cnccc32)C1 [Example 3, (R)-1-(3-(3-(4-(2-fluoro-3-methoxyphenoxy)phenyl)-1H-pyrazolo[4,3-c]pyridin-1-yl)pyrrolidin-1-yl)prop-2-en-1-one] | 50 | Btk occupancy in vivo ([2]; 10 mg/kg single oral dose): full occupancy; IC50 [3]: 0.01 to 0.1 µM
15 | C=CC(=O)N1CCC[C@@H](n2nc(-c3ccc(Oc4cccc(OC)c4F)cc3)c3cncc(OCCO)c32)C1 [Example 98, (R)-1-(3-(3-(4-(2-fluoro-3-methoxyphenoxy)phenyl)-7-(2-hydroxyethoxy)-1H-pyrazolo[4,3-c]pyridin-1-yl)piperidin-1-yl)prop-2-en-1-one] | 100 | 
16 | COc1cccc(Oc2ccc(-c3nn([C@@H]4CCCN(C(=O)/C(C#N)=C/C(C)(C)C)C4)c4c(OC)cncc34)cc2)c1F [Example 90, (R,E)-2-(3-(3-(4-(2-fluoro-3-methoxyphenoxy)phenyl)-7-methoxy-1H-pyrazolo[4,3-c]pyridin-1-yl)piperidine-1-carbonyl)-4,4-dimethylpent-2-enenitrile] |  | IC50 [4]: 0.01 to 0.1 µM
17 | C=CC(=O)N1CCC[C@@H](n2nc(-c3ccc(Oc4cccc(OC)c4F)cc3)c3c(C)nccc32)C1 [Example 78, (R)-1-(3-(3-(4-(2-fluoro-3-methoxyphenoxy)phenyl)-4-methyl-1H-pyrazolo[4,3-c]pyridin-1-yl)piperidin-1-yl)prop-2-en-1-one] | 50 | 
18 | C=CC(=O)N1CCC[C@@H](n2nc(-c3ccc(Oc4cccc(OC)c4F)cc3)c3cncc(OCC)c32)C1 [Example 73, (R)-1-(3-(7-ethoxy-3-(4-(2-fluoro-3-methoxyphenoxy)phenyl)-1H-pyrazolo[4,3-c]pyridin-1-yl)piperidin-1-yl)prop-2-en-1-one] | 100 | Btk occupancy in vivo ([2]; 5 mg/kg single oral dose): full occupancy
